Data reported in paper PMC8634879, “Design, Synthesis, and Biological Evaluation of Pyrano[2,3-c]-pyrazole–Based RalA Inhibitors Against Hepatocellular Carcinoma” (Frontiers in Chemistry, 2021).
Read-outs that look alike come from different tables or passages of the source.

What was measured:
RalA [1] = target: T1, RalA (Homo sapiens, UniProt P11233); test: ELISA-based RalA activity assay (RalBP1-coated plates, lysates of compound-treated cells); assay type: biochemical
T1 construct: expressed in transfected cells; host or cells: HepG2 (from b6; the methods paragraph names no cell line)
T1 sequence (P11233 1-203 limits assumed): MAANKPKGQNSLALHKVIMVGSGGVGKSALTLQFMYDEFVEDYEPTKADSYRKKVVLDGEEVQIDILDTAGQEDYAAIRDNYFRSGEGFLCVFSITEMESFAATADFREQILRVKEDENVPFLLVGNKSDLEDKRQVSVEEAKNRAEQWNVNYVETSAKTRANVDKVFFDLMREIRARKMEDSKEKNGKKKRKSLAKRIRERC
How it was run: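 Lysates of compound- or vehicle-treated cells, cleared by cold centrifugation, incubated overnight at 4°C on RalBP1-coated plates. Bound Ral detected with mouse anti-FLAG then HRP anti-mouse antibody; reaction stopped with 2 mol/L sulfuric acid and read at OD450.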

RalA [2] = target: T1, RalA; test: GST pulldown of activated RalA; assay type: cell-based
Procedure: GST pulldown assays were performed to assess 4p RalA/B inhibitory capacities. […] Only activated RalA was suppressed after incubation with 0.5 μM of compound 4p (Figure 5A).
The in vitro RalA/B bioactivity assays were performed following methods outlined in previous reports. ([Yan et al., 2016]; [Zhang et al., 2018]; [Walsh et al., 2019]; [Bum-Erdene et al., 2020]). In brief, the lysates of the test compound or vehicle-treated cells were cleared using cold centrifugation, and supernatants were collected. An RalBP1 solution was added to 96-well plates and incubated for 1–2 h, and then the plates were washed thrice using ELISA buffer. Next, cellular lysates were added, and samples were incubated overnight at 4°C. Then, ice-cold mouse anti-FLAG antibody was added, and samples were incubated for one more hour. After subsequent washing with ELISA buffer thrice, the HRP-conjugated anti-mouse antibody was added, and samples were incubated for another hour. Then, the HRP substrate was added. Antigen–antibody reactions were quenched by the addition of sulfuric acid (2 mol/L). Remaining RalA/B was detected by the OD450 values which were collected by using a plate reader. Cell proliferation assays, colony formation assays, apoptosis assays, GST pulldown, and Western blotting were used following methods outlined in our previous reports. ([Zhou et al., 2015]; [Zhang et al., 2016]; [Yang et al., 2017]; [He et al., 2019]). Autophagy levels and protein immunoblotting were used following the methods mentioned in our previous reports ([Pan et al., 2018]; [Wang et al., 2018]; [Hao et al., 2019]; [Wang et al., 2019]; [Peng et al., 2020]). Detailed experimental procedures are described in supporting materials.

Huh-7 cells = test: Cell proliferation assay (MTT), Huh-7; assay type: cell-based; conditions: Homo sapiens
How it was run: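 HCC lines cultured in DMEM with 10% FBS and streptomycin; cytotoxicity measured by MTT method as previously described.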

HepG2 xenograft = test: HepG2 subcutaneous xenograft model; assay type: in vivo
Procedure: Several reports have characterized RalA/B potential regulatory roles in autophagy ([Zhang et al., 2019]; [Pang et al., 2020]; [Zhang et al., 2020]). Considering the dual effect of HCC autophagy, we assessed changes in HepG2 cell autophagy levels after the addition of 0.5 or 2.0 μM of 4p, before incubation. Based on HepG2 cells’ TEM images with or without 4p (Figure 5B), autophagy vacuoles per cell decreased in the 4p-treated group (p < 0.01). After 4p treatments, LC3-II and ATG5 protein levels declined and SQSTM1 increased. […] In GFP-LC3–transfected HepG2 cells, cytoplasm LC3 fluorescent puncta numbers also declined after 4p treatments. […] The in vivo antitumor capacities of 4p were determined on a HepG2 subcutaneous xenograft model. The 4p intraperitoneal injections were set to 15 mg/kg and 60 mg/kg, according to in vitro results. […] The potential 4p molecular mechanisms were further validated using immunofluorescence and IHC analyses of tissue sections stained by antibodies against TUNEL, Ki-67, RalA, LC3-II, and SQSTM1. […] Therefore, the in vivo results were consistent with in vitro experiments.
Female Balb/c nude mice aged 6–8 weeks were purchased from Beijing Huafukang Co. Ltd. (Beijing, China). Animal-based experiments complied with the guidelines of the Animal Ethics Committee (Sichuan University), and all aspects were approved by the Animal Ethics Committee of West China Hospital of Sichuan University (China). In brief, HepG2 cells were injected subcutaneously in the dorsal flank of Balb/c nude mice (5*10^5 cells per mice). Tumor volumes were recorded every 2 days post cancer cell injection. After the therapeutic endpoint, all mice were euthanized, and tumor tissues were stripped, fixed in formalin, embedded in paraffin, and sectioned. The IHC and immunofluorescent staining methods were performed following methods as per our previous research, ([Zhang et al., 2019]; [Pan et al., 2020]; [Pang et al., 2020]; [Zhang et al., 2020]), and detailed experimental procedures are also described in supporting materials. […]
2. Western blotting analysis
For western blotting, the extracts of total protein from each sample were treated in accordance with the method we described previously. In short, the total proteins were loaded into the SDS-PAGE gel and separated through the different of their molecular weight in electrophoresis, after that the separated proteins were shifted into a PVDF membrane (Millipore, Burlington, MA, USA) and incubated through corresponding membrane react pathways. The resulted membranes reacted with major antibodies and HRP (horseradish peroxidase)-conjugated secondary antibodies. The expression profiles of target proteins can be identified through an enhanced chemiluminescence (ECL) substrate.
3. Immunohistochemistry and immunofluorescent assays
The histological sections of tumor tissue were immersed into EDTA antigen recovery buffer (pH 8.0) or citrate buffer (pH 6.0), and then microwave was used to recover antigen. Then the slide was incubated with the corresponding primary antibody at 37 ℃ for 30-40 min. Normal anti-rabbit or anti-mouse IgG was used as a negative control group. Immunohistochemical analysis was performed with diaminobenzidine solution after the sections was treated with HRP polymer as well as the second antibody for 30 min. Immunofluorescence (IF) test was carried out by treating slides with fluorescein combined with secondary antibody and detecting under fluorescence microscope. The IHC staining method is to use the corresponding primary antibody, as we reported in previous

## COc1ccc(S(=O)(=O)NC2=C(C#N)C(c3ccc(C(F)(F)F)cc3)c3c(C)nn(-c4ccccc4)c3O2)cc1 (centres unmarked) [4p, N-(5-cyano-3-methyl-1-phenyl-4-(4-(trifluoromethyl)phenyl)-1,4-dihydropyrano[2,3-c]-pyrazol-6-yl)-4-methoxybenzenesulfonamide]
RalA [1]; 1 μM compound, % control = activity remained
  remaining activity at 1 µM: 13%
RalA [1]; enzymatic inhibition, average of at least three independent replicates ± SD, read-out: Kinase activities (IC50, μM) RalA
  IC50: 0.22 ± 0.04 µM
RalA [2]; 0.5 μM, only activated RalA, not RalB
  activated RalA protein expression level: suppressed
RalA [2]; 2.0 μM
  activated RalA protein expression level: significantly suppressed
RalA [2]; GST pulldown experiment
  total RalA expression: unchanged
Huh-7 cells; Table 1, cell proliferation inhibition, read-out: IC50 (μM) Huh7
  IC50: 4.31 ± 0.39 µM
Huh-7 cells; Table 2, average of at least three independent replicates ± SD, read-out: Anti-proliferative activities (IC50, μM) Huh-7
  IC50: 4.31 ± 0.39 µM
HepG2 xenograft; 15 and 60 mg/kg i.p.
  body weights: without significant changes
HepG2 xenograft; IHC
  total RalA levels in tumor sections: No clear changes
HepG2 xenograft; both high- and low-dosage groups (60 and 15 mg/kg i.p.), p < 0.01
  mean tumor weights compared to the control: notably declined
HepG2 xenograft; high dosage group, immunofluorescence/IHC
  TUNEL and SQSTM1 levels in tumor sections: increased
HepG2 xenograft; high dosage group, p < 0.01
  LC3-II expression in tumor sections: decreased
HepG2 xenograft; high dosage, 60 mg/kg intraperitoneal injection
  tumor growth inhibition (TGI): 63%
HepG2 xenograft; low dosage, 15 mg/kg intraperitoneal injection
  tumor growth inhibition (TGI): 39%
